Test results taken from patent US20150118305A1, “COMPOSITIONS COMPRISING SULFORAPHANE OR A SULFORAPHANE PRECURSOR AND URSOLIC ACID” (Nutramax Laboratories, Inc., priority 2012, published 2015).
Blank lines part the entries; values can stand above or below the compound they belong to.

Tests used:
myrosinase [1] = experiment: Conversion of glucoraphanin to sulforaphane in Simulated Intestinal Fluid (Example 5); format: biochemical, broccoli; conditions: 38° C., 0.25 to 1.00 mmol/Liter ascorbic acid, FIG. 4
Description: Simulated Intestinal Fluid (SIF) powder, a commercially supplied concentrate closely approximating the human intestinal content in terms of composition, pH and ionic strength, was used. The experiment utilized a USP Dissolution Apparatus 2 (paddles), where into six dissolution vessels 500 mL of Simulated Intestinal Fluid was dispensed, along with 150 mg of freeze-dried broccoli sprout powder as a source of myrosinase. […] Aliquots were withdrawn every 15 minutes, and assayed for sulforaphane.

myrosinase [2] = experiment: Equimolar conversion of glucoraphanin to sulforaphane, ascorbic acid modulating myrosinase activity (Example 4); format: biochemical; conditions: Part 2; 250 mg broccoli seed extract
Description: A two-part experiment was conducted to further elucidate the role of ascorbic acid in modulating myrosinase activity. […] A control sample contained no ascorbic acid, and the enzymatic conversion proceeded unassisted by a co-factor. PART 1. […] PART 2. While keeping the amount of broccoli seed extract fixed at 250 mg, the concentration of ascorbic acid was varied from 0.4 mmol/Liter to 3.8 mmol/Liter.

[3] = tested on: broccoli sprout-derived myrosinase; experiment: Consumption of glucoraphanin by myrosinase as a function of ascorbic acid concentration (Example 3); format: biochemical; conditions: for glucoraphanin (GR) content of reaction mixture: 38° C.
Description: About 250 mg of broccoli seed extract containing about 12% (w/w) glucoraphanin were subjected to hydrolysis by a fixed concentration of broccoli sprout-derived myrosinase in the presence of variable concentration of ascorbic acid, ranging from 0 to 600 μmoles/Liter. The reaction mixtures were thermostated at 38° C.; aliquots were withdrawn every 15 minutes for 60 minutes, and concentration of glucoraphanin determined chromatographically. The rate of glucoraphanin consumption was interpreted as the rate its conversion to sulforaphane. Graphical representation of glucoraphanin content reduction as a function of increasing ascorbic acid concentration results in a series of linear plots; the slopes of the linear regression lines reflect the rate of glucoraphanin consumption, in pmoles/minute. It is apparent that in the presence of 600 μmoles/Liter concentration of ascorbic acid, the reaction rate increased 13-fold relative to that which proceeded in the absence of modulatory effects of ascorbic acid.

[4] = tested on: NAD(P)H:quinine oxidoreductase (NQO1); conditions: oral administration; mammary epithelium; cited from earlier work
[5] = tested on: matrix metalloproteinase-9 (MMP-9) gene expression; experiment: MMP-9 gene expression in PC3 cells by quantitative RT-PCR (Example 6); format: cell-based; conditions: PC3, 24 hours
Description: The following study was conducted to determine the effect of the combination of sulforaphane and ursolic acid on matrix metalloproteinase-9 (MMP-9) gene expression. The MMP-9 gene encodes the protein that is known to degrade the extracellular matrix, which is the support system of cells. In prostate, colon, brain, and other cancers, MMP9 expression is increased, and this increase has been correlated with metastasis. A decrease in MMP-9 is favorable for these cancers.
In the study, the prostate cancer cell line PC3 was treated with DMSO (vehicle control), sulforaphane (SFN), ursolic acid (UA), or the combination of sulforaphane and ursolic acid, for 24 hours. Gene expression of MMP-9 was analyzed via quantitative RT-PCR. FIGS. 5a and 5b and FIG. C show the results of the study.
Two separate treatments were conducted. […] The following reductions in gene expression of MMP-9 were observed: (i) a 5% decrease with 1 μM SFN alone, (ii) a 31% decrease with 5 μg/mL UA alone, and (iii) a 40% decrease with the combination of 1 μM SFN and 5 μg/mL UA. […] The following reductions in gene expression of MMP-9 were observed: (i) a 13% decrease with 1 μM SFN alone, (ii) a 28% decrease with 5 μg/mL UA alone, and (iii) a 45% decrease with the combination of 1 μM SFN and 5 μg/mL UA.
The following reductions in gene expression of MMP-9 were observed: (i) a 39% decrease with 5 μM SFN alone, (ii) a 15% decrease with 10 μg/mL UA alone, and (iii) a 59% decrease with the combination of 5 μM SFN and 10 μg/mL UA.

heme oxygenase-1 (HO-1) = conditions: oral administration; mammary epithelium; cited from earlier work

- ascorbic acid concentration up to which myrosinase-promoted conversion increases apparently linearly, then levels off (myrosinase [2]): about 2 mmol/L
SMILES: O=C1O[C@H]([C@@H](O)CO)C(O)=C1O [Ascorbic Acid, ascorbic acid]
- sulforaphane yield versus ascorbic acid concentration (myrosinase [1]): direct correlation between larger yield of sulforaphane and higher concentrations of ascorbic acid
- Slope of linear regression (rate of glucoraphanin consumption) ([3]; 50 μM ascorbic acid): -0.286 µmol/min
- glucoraphanin (GR) content of reaction mixture ([3]; 50 μM ascorbic acid, 0 min): 93.36 µmol
- glucoraphanin (GR) content of reaction mixture ([3]; 50 μM ascorbic acid, 15 min): 89.20 µmol
- glucoraphanin (GR) content of reaction mixture ([3]; 50 μM ascorbic acid, 30 min): 84.24 µmol
- glucoraphanin (GR) content of reaction mixture ([3]; 50 μM ascorbic acid, 45 min): 80.30 µmol
- glucoraphanin (GR) content of reaction mixture ([3]; 50 μM ascorbic acid, 60 min): 76.36 µmol
- Slope of linear regression (rate of glucoraphanin consumption) ([3]; 125 μM ascorbic acid): -0.5622 µmol/min
- glucoraphanin (GR) content of reaction mixture ([3]; 125 μM ascorbic acid, 0 min): 93.36 µmol
- glucoraphanin (GR) content of reaction mixture ([3]; 125 μM ascorbic acid, 15 min): 84.52 µmol
- glucoraphanin (GR) content of reaction mixture ([3]; 125 μM ascorbic acid, 30 min): 75.92 µmol
- glucoraphanin (GR) content of reaction mixture ([3]; 125 μM ascorbic acid, 45 min): 68.09 µmol
- glucoraphanin (GR) content of reaction mixture ([3]; 125 μM ascorbic acid, 60 min): 59.41 µmol
- Slope of linear regression (rate of glucoraphanin consumption) ([3]; 250 μM Filtered ascorbic acid): -0.4714 µmol/min
- glucoraphanin (GR) content of reaction mixture ([3]; 250 μM Filtered ascorbic acid, 0 min): 93.36 µmol
- glucoraphanin (GR) content of reaction mixture ([3]; 250 μM Filtered ascorbic acid, 15 min): 86.31 µmol
- glucoraphanin (GR) content of reaction mixture ([3]; 250 μM Filtered ascorbic acid, 30 min): 79.44 µmol
- glucoraphanin (GR) content of reaction mixture ([3]; 250 μM Filtered ascorbic acid, 45 min): 71.94 µmol
- glucoraphanin (GR) content of reaction mixture ([3]; 250 μM Filtered ascorbic acid, 60 min): 65.18 µmol
- Slope of linear regression (rate of glucoraphanin consumption) ([3]; 250 μM ascorbic acid): -0.7901 µmol/min
- glucoraphanin (GR) content of reaction mixture ([3]; 250 μM ascorbic acid, 0 min): 93.36 µmol
- glucoraphanin (GR) content of reaction mixture ([3]; 250 μM ascorbic acid, 15 min): 80.95 µmol
- glucoraphanin (GR) content of reaction mixture ([3]; 250 μM ascorbic acid, 30 min): 69.06 µmol
- glucoraphanin (GR) content of reaction mixture ([3]; 250 μM ascorbic acid, 45 min): 57.63 µmol
- glucoraphanin (GR) content of reaction mixture ([3]; 250 μM ascorbic acid, 60 min): 45.76 µmol
- Slope of linear regression (rate of glucoraphanin consumption) ([3]; 400 μM ascorbic acid): -1.007 µmol/min
- glucoraphanin (GR) content of reaction mixture ([3]; 400 μM ascorbic acid, 0 min): 93.36 µmol
- glucoraphanin (GR) content of reaction mixture ([3]; 400 μM ascorbic acid, 15 min): 78.32 µmol
- glucoraphanin (GR) content of reaction mixture ([3]; 400 μM ascorbic acid, 30 min): 62.78 µmol
- glucoraphanin (GR) content of reaction mixture ([3]; 400 μM ascorbic acid, 45 min): 47.67 µmol
- glucoraphanin (GR) content of reaction mixture ([3]; 400 μM ascorbic acid, 60 min): 33.15 µmol
- Slope of linear regression (rate of glucoraphanin consumption) ([3]; 600 μM ascorbic acid): -1.2 µmol/min
- glucoraphanin (GR) content of reaction mixture ([3]; 600 μM ascorbic acid, 0 min): 93.36 µmol
- glucoraphanin (GR) content of reaction mixture ([3]; 600 μM ascorbic acid, 15 min): 75.02 µmol
- glucoraphanin (GR) content of reaction mixture ([3]; 600 μM ascorbic acid, 30 min): 55.66 µmol
- glucoraphanin (GR) content of reaction mixture ([3]; 600 μM ascorbic acid, 45 min): 37.50 µmol
- glucoraphanin (GR) content of reaction mixture ([3]; 600 μM ascorbic acid, 60 min): 22.09 µmol
- increase of reaction rate relative to absence of ascorbic acid ([3]; 600 μmoles/Liter ascorbic acid): 13 fold

SMILES: C[S+]([O-])CCCCN=C=S (centres unmarked) [SFN, 1-isothiocyanato-4-methylsulfinylbutane]
- increase in NQO1 enzymatic activity [4]: 3 fold
- decrease in gene expression of MMP-9 ([5]; 1 μM SFN alone, Part 1 first treatment (FIG. 5a)): 5%
- decrease in gene expression of MMP-9 ([5]; 1 μM SFN alone, Part 1 second treatment (FIG. 5b)): 13%
- decrease in gene expression of MMP-9 ([5]; 5 μM SFN alone, Part 2 (FIG. 6)): 39%
- elevated immunostaining of HO-1 enzyme (heme oxygenase-1 (HO-1)): 4 fold

SMILES: C[C@H]1[C@H](C)CC[C@]2(C(=O)O)CC[C@]3(C)C(=CC[C@@H]4[C@@]5(C)CC[C@H](O)C(C)(C)[C@@H]5CC[C@]43C)[C@H]12 [UA, (1S,2R,4aS,6aR,6aS,6bR,8aR,10S,12aR,14bS)-10-hydroxy-1,2,6a,6b,9,9,12a-heptamethyl-2,3,4,5,6,6a,7,8,8a,10,11,12,13,14b-tetradecahydro-1H-picene-4a-carboxylic acid]
- decrease in gene expression of MMP-9 ([5]; 5 μg/mL UA alone, Part 1 first treatment (FIG. 5a)): 31%
- decrease in gene expression of MMP-9 ([5]; 5 μg/mL UA alone, Part 1 second treatment (FIG. 5b)): 28%
- decrease in gene expression of MMP-9 ([5]; 10 μg/mL UA alone, Part 2 (FIG. 6)): 15%
